We go through 13 compounds from ChEMBL document CHEMBL1201862, “PubChem BioAssay data set” (2004).

The structures appear in SMILES notation.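 Interpolation was linear, between the two tested concentrations surrounding the appropriate level; five concentrations were tested over 48 hours in 96-well plates. GI50 is the concentration that inhibits growth by half.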 Activity calls are given as the source filed them. Cut-off read from the data, not from the text of the source: active = GI50 up to about 1.1 µM and inactive = higher.

Common to all, as to assay: NCI tumour cell line growth inhibition, 48 h
The test system of experiment [1] is IGROV-1.
Experiment [2] relates to SR.
The test system of experiment [3] is UACC-62.
Experiment [4] has as its system COLO 205.
The test system of experiment [5] is HCT-15.
The subject of experiment [6] is UO-31.
The subject of experiment [7] is HOP-92.
Experiment [8] has as its system ACHN.
For experiment [9], the system named is RPMI-8226.
For experiment [10], the system named is NCI-H226.
Experiment [11] deals with TK-10.
Experiment [12] deals with KM12.
The test system of experiment [13] is HL-60.
In experiment [14] the test system is K562.
Experiment [15] has as its system OVCAR-3.
Experiment [16] has as its system A498.
Experiment [17] concerns SNB-75.
Experiment [18] has as its system MDA-MB-231.

As to `COc1ccc2nccc(C3OC(=O)N4CCC(=O)CC34)c2c1` (configuration not stated), the GI50 in experiment [1] was > 100 µM (inactive); in experiment [2] it was > 100 µM (inactive); in [3], > 100 µM (inactive); in experiment [4], > 100 µM (inactive); in [5], > 100 µM; in experiment [6], > 100 µM (inactive). The GI50 was 67.1 µM (inactive) in experiment [7]; > 100 µM (inactive) in experiment [8]; > 100 µM (inactive) in [9]; > 100 µM (inactive) in experiment [10]; > 100 µM (inactive) in experiment [11]; > 100 µM (inactive) in experiment [12]. The GI50 in experiment [13], in experiment [14], in [15] and in [16] was > 100 µM (inactive) in each case.

With `CC[P+](C)(C)CC`, the GI50 in experiment [1] is > 100 µM (inactive); in experiment [2], > 100 µM (inactive); in experiment [3], > 100 µM (inactive); in experiment [4], > 100 µM (inactive); in [5], > 100 µM; in [6] it was > 100 µM (inactive). The GI50 in experiment [7], in experiment [8], in experiment [9], in experiment [17], in [10] and in experiment [11] was > 100 µM (inactive) in each case. For the same compound, the GI50 in [12], in experiment [13], in experiment [14] and in [15] was > 100 µM (inactive) each time.

In the case of `CC(C)=C1CCC(CN2CCCC2)C1=O` (configuration not stated), the GI50 is 75.2 µM (inactive) in experiment [1]; 15.8 µM (inactive) in [2]; > 100 µM (inactive) in [3]; 18.5 µM in experiment [5]; 20.8 µM (inactive) in experiment [6]; 24.6 µM (inactive) in [7]. In addition, the GI50 is 18.6 µM (inactive) in [8]; 11.8 µM (inactive) in experiment [9]; 55.2 µM (inactive) in experiment [17]; > 100 µM (inactive) in [10]; 27.5 µM (inactive) in experiment [11]; 30.2 µM (inactive) in experiment [12]. Also, the GI50 in experiment [13] is 19.7 µM (inactive); in experiment [14], 21.8 µM (inactive); in experiment [15], 17.4 µM (inactive); in [16] it was > 100 µM (inactive).

For the compound `O=C(/C=C\c1ccc(Cl)c(Cl)c1)c1ccc(Cl)cc1Cl`, the GI50 in experiment [1] was 18 µM (inactive); in experiment [2] it was 3.09 µM (inactive); in experiment [3] it was 18.5 µM (inactive); in experiment [4], > 10 µM (inactive); in [5], 4.15 µM; in [6], > 10 µM (inactive). The GI50 is > 10 µM (inactive) in experiment [7]; 17.3 µM (inactive) in experiment [8]; 3.18 µM (inactive) in experiment [9]; 17.1 µM (inactive) in [17]; 9.51 µM (inactive) in experiment [10]; > 10 µM (inactive) in [11]. Moreover, the GI50 was 8.38 µM (inactive) in experiment [12]; 4.73 µM (inactive) in [13]; 6.11 µM (inactive) in [14]; 18.2 µM (inactive) in experiment [15]; > 10 µM (inactive) in [16].

Take `C[C@H](C(=O)C12CC3CC(CC(C3)C1)C2)[C@H](O)c1ccccc1`: the GI50 in experiment [1] is 40 µM (inactive); in experiment [2] it was 29.4 µM (inactive); in experiment [3] it was 28.4 µM (inactive); in experiment [4] it was 15 µM (inactive); in experiment [6], 29 µM (inactive); in experiment [7], 21.9 µM (inactive). Moreover, the GI50 in experiment [8] was 33.8 µM (inactive); in [9], 36 µM (inactive); in experiment [17] it was 27 µM (inactive); in [10] it was 16.8 µM (inactive); in experiment [11], 36.1 µM (inactive); in experiment [12], 25.5 µM (inactive). In addition, the figures for the GI50 in [13], in [14] and in [15] were 23.1 µM (inactive), 39.4 µM (inactive) and 22.4 µM (inactive), respectively.

For the compound `Cc1cn(C2CC(O)C(CO)O2)c(=O)n2nnnc12` (configuration not stated), the GI50 in experiment [1] is > 100 µM (inactive); in experiment [2], > 100 µM (inactive); in [3], > 100 µM (inactive); in [4], > 100 µM (inactive); in [5] it was > 100 µM; in experiment [6], > 100 µM (inactive). Besides, the GI50 in experiment [7], in experiment [9], in [17], in [10], in experiment [11] and in [12] was > 100 µM (inactive) throughout. Besides, the GI50 in experiment [13], in experiment [14], in experiment [15] and in [16] was > 100 µM (inactive) each time.

With `C[C@H](NC(=O)n1c2ccccc2c2ccccc21)C(=O)O`, the GI50 in experiment [1] is > 100 µM (inactive); in [2], > 100 µM (inactive); in [3] it was > 100 µM (inactive); in [4], > 100 µM (inactive); in experiment [5], > 100 µM; in [7] it was > 100 µM (inactive). Moreover, the GI50 in experiment [8], in [9], in [10], in [11], in experiment [12] and in [13] was > 100 µM (inactive) in each case. The GI50 in experiment [14] and in experiment [15] was > 100 µM (inactive) each time.

`N=c1c2c(-c3ccccc3)c[nH]c2ncn1N`: the GI50 in experiment [1] was > 100 µM (inactive); in experiment [3], > 100 µM (inactive); in [4], > 100 µM (inactive); in experiment [5], > 100 µM; in experiment [18], > 100 µM (inactive); in experiment [6] it was > 100 µM (inactive). The GI50 in experiment [7], in experiment [8], in [9], in experiment [17], in experiment [10] and in [11] was > 100 µM (inactive) in each case. Also, the GI50 in experiment [12], in experiment [13], in [14], in experiment [15] and in experiment [16] was > 100 µM (inactive) each time.

Regarding `CC(C)(C)N1CC2(CCCCC2)C1=O`, the GI50 is > 100 µM (inactive) in [1]; > 100 µM (inactive) in experiment [2]; > 100 µM (inactive) in experiment [3]; > 100 µM (inactive) in experiment [4]; > 100 µM in experiment [5]; > 100 µM (inactive) in experiment [6]. The GI50 in experiment [7], in experiment [8], in experiment [9], in experiment [17], in experiment [10] and in experiment [11] was > 100 µM (inactive) throughout. In addition, the GI50 in experiment [12], in experiment [13], in [14], in experiment [15] and in experiment [16] was > 100 µM (inactive) in each case.

As to `CCOC(=O)C(=O)Nc1ccccc1C(F)(F)F`, the GI50 in experiment [1] was > 100 µM (inactive); in [2], 2.39 µM (inactive); in experiment [3], > 100 µM (inactive); in experiment [4], > 100 µM (inactive); in [5], > 100 µM; in experiment [6], > 100 µM (inactive). Also, the GI50 in [7] is > 100 µM (inactive); in experiment [8], > 100 µM (inactive); in [9], > 100 µM (inactive); in [17], 79.4 µM (inactive); in experiment [10], > 100 µM (inactive); in experiment [11] it was > 100 µM (inactive). The GI50 in experiment [12], in [15] and in [16] was > 100 µM (inactive) in each case.

As to `CC(=O)O[C@H]1CC[C@@]2(C)C(CC[C@]3(C)C2CC[C@]2(C)Oc4c(C)cc(O)cc4C[C@@H]23)C1(C)C` (some centres not stated), the GI50 in experiment [1] was 13.5 µM (inactive); in experiment [2] it was 2.67 µM (inactive); in experiment [3], 8.59 µM (inactive); in [4], 14.5 µM (inactive); in experiment [5] it was 3.66 µM; in experiment [6] it was 8.75 µM (inactive). Also, the GI50 in [7] is 6.85 µM (inactive); in experiment [8], 5.46 µM (inactive); in [9] it was 2.5 µM (inactive); in experiment [17], 2.96 µM (inactive); in experiment [10], 15.9 µM (inactive); in experiment [11] it was 13.2 µM (inactive). For the same compound, the GI50 in experiment [12] was 6.71 µM (inactive); in experiment [13], 3.82 µM (inactive); in experiment [14] it was 3.96 µM (inactive); in [15], 11.7 µM (inactive); in experiment [16], 12.7 µM (inactive).

Consider `CN(C)CCC(=O)N1CCc2c([nH]c3ccccc23)C1c1cccnc1` (configuration not stated), for which the GI50 in experiment [1] was > 100 µM (inactive); in experiment [2], > 100 µM (inactive); in experiment [3], > 100 µM (inactive); in experiment [5], > 100 µM; in [6], 41.6 µM (inactive); in experiment [7], 36.3 µM (inactive). Also, the GI50 in experiment [8] is > 100 µM (inactive); in experiment [9], > 100 µM (inactive); in experiment [17], 78.3 µM (inactive); in experiment [11] it was > 100 µM (inactive); in [12], > 100 µM (inactive); in experiment [13], > 100 µM (inactive). The GI50 in [14], in experiment [15] and in [16] was > 100 µM (inactive) throughout.

As to `CC12CC(Sc3ccccc3N1)c1ccccc1O2` (configuration not stated), the GI50 in [1] is 21.9 µM (inactive); in experiment [2] it was 13.6 µM (inactive); in experiment [3], 17 µM (inactive); in experiment [4], 16.2 µM (inactive); in [5], 15.6 µM; in experiment [6], 14.1 µM (inactive). Besides, the GI50 in experiment [7] is 18.7 µM (inactive); in [8], 16.9 µM (inactive); in experiment [9], 13.6 µM (inactive); in experiment [17] it was 28.2 µM (inactive); in experiment [11] it was 28.9 µM (inactive); in [12], 15.3 µM (inactive). Also, the GI50 in [13] was 11 µM (inactive); in experiment [14] it was 14.3 µM (inactive); in [15], 16.4 µM (inactive); in experiment [16], 18.5 µM (inactive).
